# Assay results: ChEMBL document CHEMBL1201862, “PubChem BioAssay data set” (2004)
#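 In this assay, cells in 96-well plates receive the compound at five concentrations for 48 hours. Endpoints are linearly interpolated between the surrounding concentrations. At the GI50, growth is halved.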 The source made the active and inactive calls. Rule as the data show it: active = GI50 up to about 1.1 µM and inactive = higher.
# Assays:
# Experiment in all cases: NCI tumour cell line growth inhibition, 48 h
# A498 = tested on: A498
# CCRF-CEM = tested on: CCRF-CEM
# COLO 205 = tested on: COLO 205
# HCT-116 = tested on: HCT-116
# HT-29 = tested on: HT-29
# M14 = tested on: M14
# MCF7 = tested on: MCF7
# MDA-MB-231 = tested on: MDA-MB-231
# NCI-H23 = tested on: NCI-H23
# NCI-H522 = tested on: NCI-H522
# OVCAR-3 = tested on: OVCAR-3
# OVCAR-4 = tested on: OVCAR-4
# OVCAR-5 = tested on: OVCAR-5
# OVCAR-8 = tested on: OVCAR-8
# PC-3 = tested on: PC-3
# SK-OV-3 = tested on: SK-OV-3
# SR = tested on: SR
# UACC-257 = tested on: UACC-257
# UACC-62 = tested on: UACC-62
SMILES,GI50 (A498),GI50 (CCRF-CEM),GI50 (COLO 205),GI50 (HCT-116),GI50 (HT-29),GI50 (M14),GI50 (MCF7),GI50 (MDA-MB-231),GI50 (NCI-H23),GI50 (NCI-H522),GI50 (OVCAR-3),GI50 (OVCAR-4),GI50 (OVCAR-5),GI50 (OVCAR-8),GI50 (PC-3),GI50 (SK-OV-3),GI50 (SR),GI50 (UACC-257),GI50 (UACC-62)
O=C(O)c1nc2cc(C(F)(F)F)ccc2[nH]c1=O,> 100 µM (inactive),> 100 µM (inactive),> 100 µM (inactive),> 100 µM (inactive),> 100 µM (inactive),> 100 µM (inactive),> 100 µM (inactive),> 100 µM (inactive),> 100 µM (inactive),> 100 µM (inactive),> 100 µM (inactive),> 100 µM (inactive),> 100 µM (inactive),> 100 µM (inactive),> 100 µM (inactive),> 100 µM (inactive),> 100 µM (inactive),> 100 µM (inactive),> 100 µM (inactive)
C/C(=N\NC(=S)NC(C)(C)C)c1nc2cccnc2[nH]1,18.6 µM (inactive),0.955 µM (active),2.26 µM (inactive),3.59 µM (inactive),1.71 µM (inactive),3.33 µM (inactive),0.309 µM (active),3.55 µM (inactive),8.26 µM (inactive),4.53 µM (inactive),0.384 µM (active),0.634 µM (active),1.14 µM (inactive),1.5 µM (inactive),7.93 µM (inactive),3.08 µM (inactive),4.9 µM (inactive),3.09 µM (inactive),2.57 µM (inactive)
COC(=O)CC1c2ccccc2N2C(=O)Cc3c([nH]c4ccccc34)C12 (centres undefined),> 100 µM (inactive),> 100 µM (inactive),> 100 µM (inactive),> 100 µM (inactive),> 100 µM (inactive),> 100 µM (inactive),34.8 µM (inactive),> 100 µM (inactive),> 100 µM (inactive),> 100 µM (inactive),> 100 µM (inactive),31.4 µM (inactive),> 100 µM (inactive),> 100 µM (inactive),> 100 µM (inactive),> 100 µM (inactive),> 100 µM (inactive),> 100 µM (inactive),> 100 µM (inactive)
CSC1=C(C)S/C(=C\c2ccc(/C=C3\SC(C)=C(SC)S3)cc2)S1,> 100 µM (inactive),> 100 µM (inactive),> 100 µM (inactive),> 100 µM (inactive),> 100 µM (inactive),> 100 µM (inactive),> 100 µM (inactive),> 100 µM (inactive),> 100 µM (inactive),> 100 µM (inactive),> 100 µM (inactive),> 100 µM (inactive),> 100 µM (inactive),> 100 µM (inactive),> 100 µM (inactive),> 100 µM (inactive),> 100 µM (inactive),> 100 µM (inactive),> 100 µM (inactive)
CCCCCCc1cc2cc(C(=O)NCc3ccccc3)c(=N)oc2cc1O,> 100 µM (inactive),> 100 µM (inactive),> 100 µM (inactive),> 100 µM (inactive),> 100 µM (inactive),> 100 µM (inactive),> 100 µM (inactive),> 100 µM (inactive),> 100 µM (inactive),> 100 µM (inactive),> 100 µM (inactive),> 100 µM (inactive),> 100 µM (inactive),> 100 µM (inactive),> 100 µM (inactive),> 100 µM (inactive),> 100 µM (inactive),> 100 µM (inactive),> 100 µM (inactive)
Cc1[nH]n(C2=NCCN2)c(=O)c1Cc1ccccc1,> 100 µM (inactive),> 100 µM (inactive),> 100 µM (inactive),> 100 µM (inactive),> 100 µM (inactive),> 100 µM (inactive),> 100 µM (inactive),> 100 µM (inactive),> 100 µM (inactive),> 100 µM (inactive),> 100 µM (inactive),> 100 µM (inactive),> 100 µM (inactive),> 100 µM (inactive),> 100 µM (inactive),> 100 µM (inactive),> 100 µM (inactive),> 100 µM (inactive),> 100 µM (inactive)
O=C1OC(CCCN2CCCCC2)(c2ccccc2)CC12CCCC2 (centres undefined),57.4 µM (inactive),54.5 µM (inactive),32.3 µM (inactive),73.1 µM (inactive),37.3 µM (inactive),17.7 µM (inactive),58.2 µM (inactive),> 75.9 µM (inactive),> 89.7 µM (inactive),> 100 µM (inactive),> 100 µM (inactive),97.9 µM (inactive),> 87.1 µM (inactive),> 100 µM (inactive),> 100 µM (inactive),> 100 µM (inactive),34.4 µM (inactive),23.1 µM (inactive),61.4 µM (inactive)
CCOC(=O)P(=O)(O)c1ccc(N(C)Cc2ccccc2)cc1,> 100 µM (inactive),> 100 µM (inactive),> 100 µM (inactive),> 100 µM (inactive),> 100 µM (inactive),> 100 µM (inactive),> 100 µM (inactive),> 100 µM (inactive),> 100 µM (inactive),> 100 µM (inactive),> 100 µM (inactive),> 100 µM (inactive),> 100 µM (inactive),> 100 µM (inactive),> 100 µM (inactive),> 100 µM (inactive),> 100 µM (inactive),> 100 µM (inactive),> 100 µM (inactive)
C=CCc1c(Cl)nc(Cl)nc1Cl,1.94 µM (inactive),< 0.01 µM (active),0.195 µM (active),0.352 µM (active),0.266 µM (active),< 0.0156 µM (active),0.185 µM (active),0.561 µM (active),0.422 µM (active),< 0.0191 µM (active),0.161 µM (active),0.243 µM (active),0.678 µM (active),0.274 µM (active),0.733 µM (active),1.32 µM (inactive),< 0.01 µM (active),0.641 µM (active),0.333 µM (active)
Cc1ccc2c(=O)cc(-c3cccc(F)c3)[nH]c2n1,0.052 µM (active),0.0446 µM (active),0.0224 µM (active),0.0406 µM (active),0.0359 µM (active),0.0361 µM (active),0.0334 µM (active),0.0845 µM (active),0.0501 µM (active),0.0188 µM (active),0.0201 µM (active),1.61 µM (inactive),0.0564 µM (active),0.0638 µM (active),0.0327 µM (active),0.0403 µM (active),0.0224 µM (active),0.0395 µM (active),0.0461 µM (active)
CS(=O)(=O)C(=Cc1ccccc1Cl)S(C)(=O)=O,> 100 µM (inactive),25.5 µM (inactive),> 100 µM (inactive),31.1 µM (inactive),> 100 µM (inactive),> 80.2 µM (inactive),> 40.3 µM (inactive),> 100 µM (inactive),> 100 µM (inactive),> 100 µM (inactive),> 100 µM (inactive),> 100 µM (inactive),> 100 µM (inactive),> 100 µM (inactive),> 100 µM (inactive),> 100 µM (inactive),> 100 µM (inactive),> 100 µM (inactive),24.4 µM (inactive)
CNc1nc2c(C)ccc3nc(N(C)C)[nH]c3c-2n1,85.1 µM (inactive),81.8 µM (inactive),26.7 µM (inactive),38.9 µM (inactive),30.7 µM (inactive),25.4 µM (inactive),31.5 µM (inactive),43.6 µM (inactive),32.9 µM (inactive),54 µM (inactive),82.2 µM (inactive),19.5 µM (inactive),74.8 µM (inactive),34.5 µM (inactive),46.9 µM (inactive),21.1 µM (inactive),43.8 µM (inactive),33.3 µM (inactive),68.7 µM (inactive)
COC(=O)C1(C(=O)OC)CC(=O)c2c(OC(=O)c3cccc(OC)c3C#N)ccc(OC(=O)c3cccc(OC)c3C#N)c2C1,31.3 µM (inactive),> 100 µM (inactive),> 100 µM (inactive),> 100 µM (inactive),> 100 µM (inactive),> 100 µM (inactive),> 100 µM (inactive),> 100 µM (inactive),> 100 µM (inactive),> 100 µM (inactive),> 100 µM (inactive),> 100 µM (inactive),> 100 µM (inactive),> 100 µM (inactive),> 100 µM (inactive),> 100 µM (inactive),26.9 µM (inactive),> 100 µM (inactive),> 100 µM (inactive)
CN(C)P(=O)(Oc1ccc(CC(NC(=O)OCc2ccccc2)C(=O)OCc2ccccc2)cc1)N(C)C (centres undefined),19.4 µM (inactive),2.43 µM (inactive),20.9 µM (inactive),15.9 µM (inactive),10.1 µM (inactive),13.4 µM (inactive),12.4 µM (inactive),17.5 µM (inactive),14.1 µM (inactive),13.9 µM (inactive),3.43 µM (inactive),20.7 µM (inactive),20 µM (inactive),15.9 µM (inactive),15.2 µM (inactive),17.8 µM (inactive),4.56 µM (inactive),21.4 µM (inactive),15.2 µM (inactive)
O=c1[nH]c(=O)n(C2CC(O)C(CO)O2)c2nc3cc4ccccc4cc3nc12 (centres undefined),> 100 µM (inactive),36.6 µM (inactive),> 100 µM (inactive),> 100 µM (inactive),–,> 100 µM (inactive),> 100 µM (inactive),52.7 µM (inactive),> 100 µM (inactive),> 100 µM (inactive),> 100 µM (inactive),> 100 µM (inactive),> 100 µM (inactive),54.3 µM (inactive),> 100 µM (inactive),> 100 µM (inactive),91.6 µM (inactive),> 100 µM (inactive),> 100 µM (inactive)
